For experiment [1], the system named is ovariectomized female stroke-prone spontaneously hypertensive rats (SHRSP/izm). Put plainly: Preventive action on hypertension, cardiac hypertrophy and cerebral apoplexy in ovariectomized rats. In kind it is in vivo, rat. To be noted: feed with 1.5 g/kg of resveratrol added, 8 weeks. The text has this: Rats subjected to climacteric conditions were studied to estimate the effect of the composition of the invention in preventing a rise in blood pressure, cardiac hypertrophy and cerebral apoplexy. Specifically, 18-week-old female stroke-prone spontaneously hypertensive rats (SHRSP/izm) were ovariectomized and subjected to climacteric conditions. Then, the rats were grouped into a resveratrol group and a control group. Also provided a sham group of rats which received a sham operation, that is, a laparotomy without ovary removal. The rats were fed ad libitum. The control group and sham group were fed with “Powdery Mixed Feed SP” (manufactured by Funahashi Farm), and the resveratrol group was fed with the same mixed feed with 1.5 g/kg of resveratrol added. Five rats in each group were bred for 8 weeks. The blood pressure of the rats was measured every week without anesthesia by means of a rat caudal artery sphygmomanometer. After the breeding period, the rats were slaughtered for dissection.

The test system is the same in experiment [2]. Put plainly: Preventive action on decrease in bone weight in ovariectomized rats (climacteric conditions). It counts as in vivo, rat. To be noted: left thigh bone, resveratrol in feed about 20 mg/kg per day, 8 weeks, mean ± SD, n = 5. As to the method: Rats subjected to climacteric conditions were studied to estimate the effect of the composition of the invention in preventing a decrease in bone weight. Specifically, 18-week-old female stroke-prone spontaneously hypertensive rats (SHRSP/izm) were ovariectomized and subjected to climacteric conditions. Then, the rats were grouped into a resveratrol group to which resveratrol was administered and a control group. Also provided was a sham group of rats which received a sham operation, that is, a laparotomy without ovary removal. The rats were fed ad libitum. The control group and sham group were fed with “Powdery Mixed Feed SP” (manufactured by Funahashi Farm), and the resveratrol group was fed with the same feed with resveratrol added thereto. The amount of added resveratrol administered was adjusted to about 20 mg/kg per day. Each group had 5 rats that were bred for 8 weeks. After the breeding period, the rats were slaughtered for dissection. The left thigh bone was removed from each group's rats. The thigh bones were tested for their bone density and measured for their breaking load and breaking energy values using “EZ-test” (manufactured by Shimadzu Corporation), whereby their bone strength was evaluated.

Experiment [3] concerns male stroke-prone spontaneously hypertensive rats (SHRSP/izm). Nature of the experiment: Preventive action on hypertension and cardiac hypertrophy in male rats. In kind it is in vivo, rat. The settings on record: 8 weeks. As to the method:
The ability of the composition of the invention to prevent a rise in blood pressure and cardiac hypertrophy was researched using male rats. Firstly, 5- to 6-week-old male stroke-prone spontaneously hypertensive rats (SHRSP/izm) were grouped into a resveratrol group and a control group. The rats were fed ad libitum with “Powdery Mixed Feed SP” (manufacture by Funahashi Farm). The resveratrol group was administered resveratrol in an amount of 5 mg/kg per day. The administration was conducted by the intended clinical route, i.e., orally. The rats were force-fed orally once a day with a Teflon gastric tube. The dose was adjusted to 1 ml per 100 g of the body weight using a water for injection listed in The Japanese Pharmacopoeia, calculated according to the measured body weight of the individual rats. The control group was given the same amount of the water for injection listed in the Japanese Pharmacopoeia only. Each group had 5 rats that were bred for 8 weeks. The blood pressure of the rats was measured every 2 weeks without anesthesia by means of a rat caudal artery sphygmomanometer. After the breeding period, the rats were slaughtered for dissection and the ratio of the weight of the heart to the total body weight of the rats was measured.

The subject of another experiment is osteoblastic cells. To be noted: cultured osteoblastic cell strain; Biochem. Biophys. Res. Commun. 253, 859–863 (1998); cited from earlier work.

The source of these data is US7163961B1, “Drugs, foods and oral compositions containing stilbene-type compounds” (Sunstar Inc., priority 1999, dated 2007).

Consider `Oc1ccc(C=Cc2cc(O)cc(O)c2)cc1` [Resveratrol, 3,5,4′-stilbenetriol], for which, in experiment [1], the “Blood pressure compared with sham group” value was “about the same as that of the sham group”. Besides, the “Cerebral infarction in brain tissue” value in experiment [1] (5 rats, control group 4 rats out of 5) is recorded as “not found in any rats”. For the same compound, the “Inhibition of rise in blood pressure (FIG. 1)” value in experiment [1] (caudal artery sphygmomanometer, weekly, without anesthesia) is listed as “significantly higher action to inhibit a rise in the blood pressure than the control group”. For the same compound, in experiment [1] (mean ± SD, n = 5), the “Brain weight per body weight” value turned out to be 0.803 ± 0.02% and the “Heart weight per body weight” value amounted to 0.424 ± 0.023%. In experiment [2] (EZ-test), this compound registered a Breaking energy of 0.0523 ± 0.0073 J and a Breaking load of 99.46 ± 9.57 N. The same compound yielded a Bone density in experiment [2] of 1.479 ± 0.281 g/mL. The “Heart weight per body weight” value in experiment [3] (5 mg/kg per day orally by gastric tube, mean ± SD, n = 5) was determined as 0.557 ± 0.024%. The “Inhibition of rise in blood pressure (FIG. 2)” value in experiment [3] (5 mg/kg per day orally, caudal artery sphygmomanometer, every 2 weeks) was “significantly higher action to inhibit a rise in the blood pressure”. Further, in the experiment on osteoblastic cells, the “Activity of alkaline phosphatase” value is “accelerates the activity of alkaline phosphatase”, the “Activity of prolyl hydroxylase” value is “enhances the activity of prolyl hydroxylase” and the “Proliferation of osteoblastic cells” value is on record as “accelerates the proliferation of osteoblastic cells”.
